From PubChem BioAssay AID488890 (Southern Research Specialized Biocontainment Screening …, 2010)
Records with an inconclusive call do not appear. Activity calls are given as the source filed them. How the calls were made is not given here.

tested on: Mycobacterium tuberculosis non-replicating, growth inhibition; test: growth inhibition of non-replicating M. tuberculosis (AID 488890)

Structure (SMILES)	IC50
C=CCn1c(O)c(C(C)=Nc2ccc(C(=O)OCC)cc2)c(=O)[nH]c1=O	7.05 µM
O=C(CCSc1nnc(-c2ccncc2)o1)Nc1cccc(Cl)c1	20.3 µM (inactive)
CCS(=O)(=O)c1ncc(Cl)c(C(=O)Nc2ccc(S(=O)(=O)N(C)c3ccccc3)cc2)n1	7.18 µM
COC(CNC(=O)c1ccc2c3c(onc13)-c1ccccc1C2=O)OC	2.4 µM
COc1cc(CNC2CCCC2)cc(Cl)c1OCc1ccccc1Cl	9.58 µM
CCC(=O)c1ccc(OCc2ccc(C(=O)OC)cc2)cc1	10.8 µM (inactive)
CCOC(=O)c1cc(-c2csc(COc3ccc(Cl)cc3)n2)on1	0.13 µM
CC(C)=CCN1CCN(Cc2cn(C(C)C)c3ccccc23)CC1CCO (stereo not drawn)	22.1 µM (inactive)
Cc1ccc(NC(=O)c2noc(C(C)C)c2[N+](=O)[O-])cc1	19.3 µM (inactive)
NCCNc1ccc([N+](=O)[O-])c2cccnc12	4.89 µM
Cn1c(SCCOc2cccc(Cl)c2)nnc1-c1ccncc1	11.4 µM (inactive)
Cc1ccc(C(=O)N/N=C\c2ccc(-c3ccc(Cl)cc3)o2)cn1	7.02 µM
CCc1ccc(C(C)NC(=O)C2CCCO2)cc1 (stereo not drawn)	8.61 µM
COc1cc(/C=C/c2ccc3c([N+](=O)[O-])cccc3n2)ccc1OCC(=O)O	1.79 µM
COc1cccc(NC(=O)c2cc3ccccc3oc2=O)c1	15.2 µM (inactive)
CSc1nc(=S)cc(C)[nH]1	6.23 µM
CCOc1ccc(-c2nnc(NC(=O)c3ccc(OCC(C)C)c(OC)c3)o2)cc1	24.1 µM (inactive)
Clc1cccc(/C=N\Nc2nccs2)c1	12 µM (inactive)
O=C(CCNc1ccc(Cl)c(C(F)(F)F)c1)c1ccco1	5.63 µM
CC1=NN(C(=O)c2ccccc2)C(O)(c2ccc(Br)cc2)C1 (stereo not drawn)	0.62 µM

Structure (SMILES)	IC50
Cc1ccc2nc(NC(=O)COC(=O)c3ccc(Br)o3)sc2c1	35.8 µM (inactive)
CCCCSc1nnc(-c2ccc(C)cc2)o1	0.37 µM
OC(CNCC(c1ccc(Cl)cc1Cl)c1c[nH]c2ccccc12)c1ccccc1 (stereo not drawn)	10.9 µM (inactive)
FC(F)(F)c1nnc2ccc(Cl)nn12	1.56 µM
CCCCCn1c(=O)c(C(=O)Nc2cnccn2)c(O)c2ccccc21	2.55 µM
CN(C)CCCn1c(=O)n(C2CCCCC2)c(=O)c2c3c(sc21)CCCCC3	20.7 µM (inactive)
O=C(NCc1cccs1)c1ccc(Br)o1	3.37 µM
CCN(CC)CCCN(C(=O)c1ccco1)c1nc(-c2ccc(C)cc2)cs1	21.9 µM (inactive)
Clc1ccc2c(c1)C(N1CCNCC1)Cc1ccccc1S2 (stereo not drawn)	15.2 µM (inactive)
CCOC(=O)c1cc2cc3ccccc3cc2oc1=O	37.6 µM (inactive)
Cc1ccc2c(c1)c1c3n2CCN=C3CCC1	15.2 µM (inactive)
C/C(=N\NC(=O)c1ccc([N+](=O)[O-])c(C)c1)c1ccccc1Cl	12.2 µM (inactive)
O=C(NNC(=O)c1ccccc1F)c1ccc(-c2ccc(Cl)cc2)o1	1.53 µM
C/C(=N/Nc1ccnc2cc(Cl)ccc12)c1ccc(N)cc1	21.6 µM (inactive)
CCOC(=O)c1cc(-c2cccc([N+](=O)[O-])c2)on1	0.64 µM
O=C(COC(=O)c1ccc(Cl)s1)c1ccc[nH]1	6.38 µM
Cn1cccc1/C=N\NC(=O)C1COc2ccccc2O1 (stereo not drawn)	13.2 µM (inactive)
COc1ccc2cc(C(=O)C3CCCN(Cc4cccc(C)n4)C3)ccc2c1 (stereo not drawn)	8.11 µM
O=C(c1cc2ccccc2o1)N1CCN(Cc2ccccc2)CC1	7.64 µM
COc1ccc(C(=O)C2CCCN(C(=O)c3ccc(CSC)o3)C2)cc1F (stereo not drawn)	42.2 µM (inactive)

Structure (SMILES)	IC50
CC1(c2nnc(-c3ccc(F)cc3)o2)CC(c2cccc(Cl)c2)=NO1 (stereo not drawn)	2.9 µM
CC(C)(C)NC(=O)c1ccc(NC(=O)c2ccccc2-c2ccccc2C(=O)O)cc1	3.71 µM
Clc1ccccc1OCc1nnc(-c2ccccc2)o1	4.35 µM
CC1CC(C)CN(CCOCCSc2ccc(Cl)cc2)C1 (stereo not drawn)	30.7 µM (inactive)
c1ccc(CNCCC(Cc2ccccc2)c2ccco2)cc1 (stereo not drawn)	21.6 µM (inactive)
CN(Cc1ccccc1)C(=O)c1ccc([N+](=O)[O-])o1	3.29 µM
COC(=O)N/N=C/c1ccc([N+](=O)[O-])s1	17 µM (inactive)
COc1ccc(N2C(=O)C(F)(F)C2c2cccc(F)c2)cc1 (stereo not drawn)	2.15 µM
Cc1ccc(C)c(NC(=O)c2cc([N+](=O)[O-])cc([N+](=O)[O-])c2)c1	28.3 µM (inactive)
Cc1ccc(C(=O)N/N=C/c2cccc3ccccc23)cn1	5.95 µM
O=C(Nc1nc2ccccc2n1CCN1CCCC1)c1ccc(Cl)cc1	12.5 µM (inactive)
O=C(COC(=O)c1ccc([N+](=O)[O-])s1)Nc1ccc(Cl)cn1	2.37 µM
O=C(NC(=S)Nn1cnc2c(cnn2-c2ccccc2)c1=O)c1ccccc1	22.2 µM (inactive)
Cc1ccccc1NCC(=O)N/N=C\c1ccc([N+](=O)[O-])s1	3.57 µM
CCc1c(C)c2ccc(OCC(=O)OC)cc2oc1=O	9.03 µM
O=C(CCC1CCCCC1)NCc1ccc(F)cc1	5.27 µM
COc1ccccc1N=Cc1nc(-c2ccccc2)oc1OC(C)=O	19.6 µM (inactive)
O=C(c1cc(F)ccc1F)C1CCCN(Cc2ccc3nonc3c2)C1 (stereo not drawn)	12.7 µM (inactive)
